Assay results from ChEMBL document CHEMBL1150146, “New terpenoids from the brown alga Stypopodium zonale” (J Nat Prod, 2002).
Values after ≈ are worked out from the molar mass of the structure shown.

How the values were obtained:
Assay type in all cases: functional, cell-based
A549 = assay: Cytotoxicity against human A549 cells
[1] = Cytotoxicity against human H116 cells
HT-29 = assay: Cytotoxicity against human HT-29 cells

## COC(=O)CC[C@@H]1C(=C(C)C)CC[C@H]2[C@@]1(C)CC[C@H](C)[C@]2(C)Cc1cc(O)cc(C)c1O
A549
  IC50: 2.5 µg/mL (≈ 5.65 µM)
[1]
  IC50: 2.5 µg/mL (≈ 5.65 µM)
HT-29
  IC50: < 2.5 µg/mL
